{"source": "paper PMC3914206", "key": {"[1]": {"target": "T1, panel of 442 kinases (Homo sapiens, UniProt Q13237)", "T1 construct": "purchased KINOMEscan", "T1 sequence (Q13237 1-762)": "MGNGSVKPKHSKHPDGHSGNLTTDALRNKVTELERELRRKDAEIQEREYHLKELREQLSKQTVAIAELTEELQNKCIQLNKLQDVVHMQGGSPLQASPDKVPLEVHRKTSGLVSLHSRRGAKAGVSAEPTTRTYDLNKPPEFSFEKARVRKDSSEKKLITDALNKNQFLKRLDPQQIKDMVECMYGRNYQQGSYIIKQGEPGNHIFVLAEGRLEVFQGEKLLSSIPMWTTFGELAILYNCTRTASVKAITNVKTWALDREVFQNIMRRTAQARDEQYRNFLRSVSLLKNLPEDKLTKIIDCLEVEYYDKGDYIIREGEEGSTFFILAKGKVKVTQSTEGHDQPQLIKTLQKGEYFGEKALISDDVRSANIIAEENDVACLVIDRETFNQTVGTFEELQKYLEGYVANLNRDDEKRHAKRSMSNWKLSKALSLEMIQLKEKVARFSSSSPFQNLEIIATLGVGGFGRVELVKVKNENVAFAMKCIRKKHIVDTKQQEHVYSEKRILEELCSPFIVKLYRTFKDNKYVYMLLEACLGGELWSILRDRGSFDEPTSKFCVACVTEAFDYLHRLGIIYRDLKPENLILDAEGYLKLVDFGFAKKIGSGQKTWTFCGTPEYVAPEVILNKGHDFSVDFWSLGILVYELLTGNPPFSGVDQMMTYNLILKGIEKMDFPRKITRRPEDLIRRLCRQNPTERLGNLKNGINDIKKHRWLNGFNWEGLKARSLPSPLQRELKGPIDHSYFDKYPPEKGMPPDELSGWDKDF", "type": "binding", "conditions": "Compound Concentration 10 µM", "text": "(§1) We assessed the selectivity of members of this scaffold using the KINOMEscan methodology across a near comprehensive panel of 442 kinases [[18,27]]."}, "[2]": {"target": "T2, panel of 442 kinases (Homo sapiens, UniProt Q8IVH8)", "T2 construct": "purchased KINOMEscan", "T2 sequence (Q8IVH8 1-894)": "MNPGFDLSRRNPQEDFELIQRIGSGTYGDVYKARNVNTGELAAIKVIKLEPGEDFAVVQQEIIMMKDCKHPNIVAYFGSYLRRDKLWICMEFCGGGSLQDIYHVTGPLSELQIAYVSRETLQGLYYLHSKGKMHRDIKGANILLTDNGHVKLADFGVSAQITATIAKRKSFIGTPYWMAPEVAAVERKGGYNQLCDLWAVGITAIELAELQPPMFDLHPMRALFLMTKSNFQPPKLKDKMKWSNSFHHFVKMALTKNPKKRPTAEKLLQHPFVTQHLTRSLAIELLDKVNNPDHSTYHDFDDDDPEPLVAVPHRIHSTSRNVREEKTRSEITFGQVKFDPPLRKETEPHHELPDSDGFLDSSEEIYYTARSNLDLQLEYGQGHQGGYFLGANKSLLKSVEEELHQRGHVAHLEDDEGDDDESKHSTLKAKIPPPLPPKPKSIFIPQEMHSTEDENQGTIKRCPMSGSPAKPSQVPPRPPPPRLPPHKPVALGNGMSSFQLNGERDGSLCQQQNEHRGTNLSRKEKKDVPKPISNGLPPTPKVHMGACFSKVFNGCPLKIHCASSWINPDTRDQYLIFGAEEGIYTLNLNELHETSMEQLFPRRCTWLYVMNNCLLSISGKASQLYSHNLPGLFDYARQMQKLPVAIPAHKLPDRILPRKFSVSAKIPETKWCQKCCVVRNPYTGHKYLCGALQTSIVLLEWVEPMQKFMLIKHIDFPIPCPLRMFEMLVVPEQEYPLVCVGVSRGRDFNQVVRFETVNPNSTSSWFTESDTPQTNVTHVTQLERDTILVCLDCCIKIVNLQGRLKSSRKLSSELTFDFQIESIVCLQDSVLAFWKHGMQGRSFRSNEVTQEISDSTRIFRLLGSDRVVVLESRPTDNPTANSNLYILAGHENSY", "type": "binding", "conditions": "Compound Concentration 10 µM", "text": "as §1"}}, "data": [{"smiles": "COc1cc(C(=O)N2CCC(N3CCN(C)CC3)CC2)ccc1Nc1ncc2c(n1)N(C)c1ccccc1C(=O)N2C", "note": "[15 (LRRK2-IN-1)]", "values": [{"measurement": "KINOMEscan: PRKG2", "setting": "[1]", "result": 74}, {"measurement": "KINOMEscan: MAP4K3", "setting": "[2]", "result": 71}]}, {"smiles": "CCOc1cc(C(=O)N2CCC(N3CCN(C)CC3)CC2)ccc1Nc1ncc2c(n1)N(C1CCCC1)c1ccccc1C(=O)N2C", "note": "[Compound 26]", "values": [{"measurement": "KINOMEscan: PRKG2", "setting": "[1]", "result": 100}, {"measurement": "KINOMEscan: MAP4K3", "setting": "[2]", "result": 98}]}, {"smiles": "COc1cc(C(=O)N2CCC(N3CCN(C)CC3)CC2)ccc1Nc1ncc2c(n1)N1CCc3cccc(c31)C(=O)N2C", "note": "[Compound 24]", "values": [{"measurement": "KINOMEscan: PRKG2", "setting": "[1]", "result": 98}]}, {"smiles": "COc1cc(C(=O)N2CCC(N3CCN(C)CC3)CC2)ccc1Nc1ncc2c(n1)N(C1CCCC1)c1ccccc1C(=O)N2C", "note": "[Compound 25, 11-cyclopentyl-2-((2-methoxy-4-(4-(4-methylpiperazin-1-yl)piperidine-1-carbonyl)phenyl)amino)-5-methyl-5H-benzo[e]pyrimido[5,4-b][1,4]diazepin-6(11H)-one]", "values": [{"measurement": "KINOMEscan: PRKG2", "setting": "[1]", "result": 98}, {"measurement": "KINOMEscan: MAP4K3", "setting": "[2]", "result": 100}]}]}
